The test system of one assay is Ae. aegypti mosquitoes. The assay is described as follows: Continuous exposure to treated filter paper, knockdown and mortality (Example 3). To be noted: 1% nootkatone in ethanol on filter paper. In kind it is in vivo, Aedes aegypti. On the procedure:
In the following example, the effectiveness of a 1% nootkatone composition in killing Ae. aegypti mosquitoes was determined.
A composition of 1% nootkatone formulated in ethanol was added to filter paper, which was then introduced into a Fluon®-coated container. Ten Ae. aegypti mosquitoes were added to the container and observed at 30 min, 1, 4, and 24 hr. Five replicates were performed. […] An untreated population was observed as a negative control.

Assay [1] deals with female Anopheles quadrimaculatus mosquitoes. The assay is described as follows: In vitro membrane feeder repellency assay, probing of treated collagen membranes (Example 2). In kind it is in vivo. Conditions: for Percent repellency: 1% Nootkatone in ethanol, 25 μL on collagen membrane, twenty minutes, average ± SE, n = 5. An excerpt: (§1) A laboratory trial was required to evaluate the repellency of 1% Nootkatone against female Aedes aegypti, Culex quinquefasciatus, and Anopheles quadrimaculatus mosquitoes using an in vitro method.
(§2) Female adult laboratory reared Aedes aegypti, Culex quinquefasciatus, and Anopheles quadrimaculatus mosquitoes (susceptible) were obtained from Benzon Research in Carlisle, Pa. 250 mosquitoes were used per replicate (5 replicates per test, per species). Adult mosquitoes were 3-8 days old.
(§3) Nootkatone was diluted in ethanol and acetone (note that Nootkatone diluted in acetone was not tested against An. quadrimaculatus). A positive control consisting of 20% DEET in ethanol was prepared using stock solutions. Negative controls consisted of no treatment, and ethanol-only treatment.
(§4) The treatments were applied directly to prepared collagen membranes by pipetting 25 μL of the appropriate substance onto a membrane and spreading it evenly with the tip of the pipette.
(§5) Exposure container. A 30.5 cm×30.5 cm×30.5 cm rigid plastic frame supported by four, 4 cm high legs, with a sleeved entry on one side and a sliding door on the bottom.
(§6) Membrane feeder. Five wells (3 cm in diameter×8 mm in depth) in line on a hollow plastic block (6 cm wide×22 cm long×3 cm deep), which fits through the sliding door in the bottom of the exposure container. Hoses attached to each side of the block circulate heated water that is pumped from a water bath. The sliding door in the bottom of the exposure container covers and uncovers the wells in the membrane feeder, allowing mosquitoes to access the wells.
(§7) Test set-up. The membrane feeder was connected to a heated water bath, and warm water passed through the feeder via a circulating pump so that the wells were warmed to 89-95° F. Seventy-two (72) mg of ATP (disodium salt) were added to 26 mL of warmed citrated bovine blood, which was poured into the wells until they were completely full.
(§8) The collagen membranes were placed on vacuum greased wax paper for treatment. They were then treated as described above and left for five minutes to dry. After they dried, the membranes were placed over each of the wells (using vacuum grease as an adhesive), completely covering the blood.
(§9) Exposure to mosquitoes. The mosquitoes were released into the exposure container just prior to exposure to the membranes. The exposure container was then placed on the membrane feeder and the sliding door opened, allowing the mosquitoes to access the wells. The number of mosquitoes probing each membrane was recorded every two minutes for twenty minutes.
(§10) The above procedures were repeated until five replicates were completed. A new batch of 250 female mosquitoes and fresh blood were used for each replicate, and the wells were cleaned in between replicates. The position of the treatments was rotated for each replicate, so that each treatment was tested on each of the five wells.
(§11) Percent repellency was calculated for each replicate using the total number of probes with the following formula:
(§12) [formula] • where C=the total number of probes on the untreated well • and T=the total number of probes on the treated well
(§13) Average percent repellency and standard error were then calculated across all five replicates. Shapiro-Wilks tests were conducted to determine the normality of the data, based on total number of probes per replicate. Depending on normality, student t-tests (with concurrent F-tests for variance) or Mann-Whitney tests were then used to determine significance between the treatments.

Assay [2] has as its system female Culex quinquefasciatus mosquitoes. Described as above. To be noted: for Percent repellency: 25 μL on collagen membrane, twenty minutes, average ± SE, n = 5. In kind it is in vivo.
Excerpt: as §1, §2, §3, §4, §5, §6, §7, §8, §9, §10, §11, §12, §13

Assay [3] concerns female Aedes aegypti mosquitoes. The description is as above. To be noted: for Percent repellency: 25 μL on collagen membrane, twenty minutes, average ± SE, n = 5. In kind it is in vivo.
Excerpt: as §1, §2, §3, §4, §5, §6, §7, §8, §9, §10, §11, §12, §13

The mark [4] stands for this setting: 1% Nootkatone diluted in ethanol and in acetone.

Regarding `C=C(C)[C@@H]1CCC2=CC(=O)C[C@@H](C)[C@]2(C)C1` [Nootkatone, nootkatone], in the assay on Ae. aegypti mosquitoes (after 1 hr), the “Knockdown rate after 1 hr relative to 30 min” value is reported as “more than doubled”. The Knockdown rate entry with Ae. aegypti mosquitoes (after 4 hr) is “greater than 90%”. For the same compound, in the assay on Ae. aegypti mosquitoes (continuous exposure), the “Exposure time after which mosquitoes begin to be affected” value came to 30 min. Further, the “Exposure time at which knockdown was complete (FIG. 5)” value in the assay with Ae. aegypti mosquitoes (continuous exposure) is < 24 h. Moreover, the “Average percent of mosquitoes affected (FIG. 3)” value in the assay with Ae. aegypti mosquitoes (continuous exposure 24 hr) was “All mosquitoes were affected”. Further, the Percent repellency is recorded as 90.3% in assay [1]; 90.3 ± 5.3% in assay [1] (listed as Nootkatone (ethanol)); 80.1 ± 10.0% in assay [2] (1% Nootkatone in acetone); 83.8 ± 5.5% in assay [2] (1% Nootkatone in ethanol); 91.5 ± 2.1% in assay [3] (1% Nootkatone in acetone); 92.0 ± 3.4% in assay [3] (1% Nootkatone in ethanol). Besides, in assay [1] (1% nootkatone diluted in ethanol), the “Protection compared with ethanol alone (significance)” value is listed as “not found to be significantly different from ethanol alone”. For the same compound, the “Protection compared with untreated or ethanol alone (significance, α=0.05)” value in assay [2] (setting [4]) and in assay [3] (setting [4]) was “significantly higher protection” throughout. The “Protection level compared with 20% DEET (significance, α=0.05)” value in assay [2] (setting [4]) and in assay [3] (setting [4]) was “not significantly different from 20% DEET” each time.

Source of the values: patent US11800867B2, “Methods of repelling biting arthropods, reducing pathogen spread and treating arthropod infestation” (priority 2016, dated 2023).
